The subject of data set [1] is neonatal rat ventricular myocytes (NRVMs). Put plainly: Hypoxia/reoxygenation injury in neonatal rat ventricular myocytes (ΔΨm and mCa2+ uptake). Particulars: 50 μM, 16 hours hypoxia, 8 hours reoxygenation. The data set is classed as cell-based. The protocol:
Freshly isolated NRVMs were subjected to 16 hours of hypoxia (5% O2-5% CO2) followed by 8 hours of reoxygenation (20% O2-5% CO2). To study the protective effect of C-2, HIR was induced in NRVMs pretreated with or without C-2 (50 μM).
An equal number of NRVMs (6×10^6 cells) were washed in Ca^2+ free PBS, pH 7.4, resuspended and permeabilized with 40 μg/ml digitonin in 1.5 mL of intracellular medium (ICM) composed of 120 mM KCl, 10 mM NaCl, 1 mM KH2PO4, 20 mM Hepes-Tris, pH 7.2 and 2 μM thapsigargin to block the SERCA pump. All measurements were performed in the presence of 2 mM succinate. The simultaneous measurement of mitochondrial membrane potential (ΔΨm) and extra-mitochondrial Ca^2+([Ca^2+]) clearance were measured as above by using the JC-1 and Fura2-FF dyes. A series of extra-mitochondrial Ca^2+ bolus (10 μM) was added and mitochondrial uncoupler, CCCP (2 μM), were added at the indicated time points. All the experiments were performed at 37° C. with constant stirring.
Given the Ca^2+ uptake inhibiting properties and low toxicity of C-2, C-2 was studied for its possible ability to protect cardiomyocytes from the mCa^2+ overload that occurs during hypoxia/reoxygenation (I-H/R) injury and prevent mPTP opening and mitochondrial swelling. Freshly isolated neonatal rat ventricular myocytes (NRVMs) treated with C-2 (50 μM) were subjected to 16 hours of hypoxia (1% O2-5% CO2), followed by 8 hours of reoxygenation (21% O2-5% CO2). Untreated NRVMs served as controls. After H/R injury, NRVMs were permeabilized and loaded with the JC-1 and Fura-FF to simultaneously measure ΔΨm and mCa^2+ uptake.

The next data set concerns HeLa cells. The data set is described as follows: Whole cell uptake of ruthenium (GFAAS) in HeLa cells. The following applies: 50 μM, 24 hours. The data set is classed as cell-based.
In another data set the target is T1, MCU C97A mutant (Homo sapiens, UniProt Q8NE86, C97A).
T1 construct: stably expressing Flag-tagged full-length wild-type MCU (MCU^WT) and the mutant C97A (MCU^C97A); Flag; expressed in transfected cells
T1 sequence (Q8NE86 51-351 C97A): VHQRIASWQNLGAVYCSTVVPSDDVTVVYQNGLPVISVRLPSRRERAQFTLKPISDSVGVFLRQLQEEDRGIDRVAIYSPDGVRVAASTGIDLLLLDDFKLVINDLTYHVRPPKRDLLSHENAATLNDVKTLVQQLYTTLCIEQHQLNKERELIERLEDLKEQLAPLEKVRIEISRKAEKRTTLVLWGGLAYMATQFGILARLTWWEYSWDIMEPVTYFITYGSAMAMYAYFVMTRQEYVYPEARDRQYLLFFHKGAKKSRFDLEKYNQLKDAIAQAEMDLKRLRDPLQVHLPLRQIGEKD
T1 sequence (Q9H4I9 48-107 partner limits assumed): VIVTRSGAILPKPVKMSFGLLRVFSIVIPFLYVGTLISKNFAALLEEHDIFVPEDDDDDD
The data set is described as follows: mCa2+ uptake in permeabilized HEK293T cells expressing MCU C97A mutant. The format is cell-based. The following applies: C-2 10 nM, Ru360 500 nM. The protocol: An equal number of IHEK293T (6×10^6 cells) were washed in Ca^2+ free PBS, pH 7.4, resuspended and permeabilized with 40 μg/ml digitonin in 1.5 ml of intracellular medium (ICM) composed of 120 mM KCl, 10 mM NaCl, 1 mM K—H2PO4, 20 mM HE PES-Tris, pH 7.2 and 2 μM thapsigargin to block the SERCA pump. All measurements were performed in the presence of 2 mM succinate. The permeabilized cells were loaded with JC-1 (800 nM) and Fura2-FF (0.5 μM), respectively. Fluorescence was monitored in a multi-wavelength excitation dual-wavelength emission fluorimeter. [Ca^2+]out is represented as the excitation ratio (340 nm/380 nm) of Fura2-FF/FA fluorescence and ΔΨm as the ratio of the fluorescence of J-aggregate (570 nm excitation/595 nm emission) and monomer (490 nm excitation/535 nm emission) forms of JC-1. A series of extra-mitochondrial Ca^2+ bolus (20 μM) was added and mitochondrial uncoupler, CCCP (2 jμM), were added at the indicated time points. All of the experiments were performed at 37° C. with constant stirring.
To determine if C-2 interacts with the NTD, HEK293T cells stably expressing Flag-tagged full-length wild-type MCU (MCU^WT) and the mutant C97A (MCU^C97A) were permeabilized, and mCa^2+ uptake was measured as above.

The next data set is described as follows: MTT cytotoxicity assay. The format is cell-based, human. Particulars: human; HEK293 cells, 72 hours incubation; read-out: IC50 (cytotoxicity, MTT). The protocol: HEK293 (human embryonic kidney cells were obtained from American Type Culture Collection (ATCC, Washington D.C.) and cultured as adherent monolayers in a humidified 5% CO2 atmosphere at 37° C. in Minimum Essential Media supplemented with 10% fetal bovine serum (FBS) and 100 U/mL penicillin/streptomycin. HeLa cells were cultured in Dulbecco's Modified Eagle's Medium (DMEM) supplemented with 10% FBS and 100 U/mL penicillin/streptomycin. Cells were checked for contamination monthly using the PlasmoTest™ mycoplasma detection kit. Ventricular cardiomyocytes were isolated from neonatal rats (NRVMs) as previously described (H. M. Piper et al., Piper H. M. (eds), Cell Culture Techniques in Heart and Vessel Research, Springer Verlag: Berlin, 1990). The isolated myocytes were cultured in Ham's F-10 supplemented with 5%/o fetal bovine serum (FBS) and penicillin/streptomycin (100 U/ml) at 37° C. in a 95% air/5% CO2 humidified atmosphere for four days
Cells were seeded at 4000 cells/well in 100 μL/well in a 96-well plate and incubated for 24 hours. The media was removed and replaced with 200 μL of growth media containing varying concentrations of the complex. After 72 hours of incubation, the media was replaced with MEM containing 1 mg/mL of (4,5-dimethylthiazol-2-yl)-2,5-diepheyltetrazolium bromide (MTT). After four hours incubation, the media was removed and the purple formazan crystals were solubilized using 100 μL of a 8/1 DMSO/glycine buffer (pH 10) mixture. The absorbance at 570 nm was measured using a plate reader.
With the new nitrido-bridged ruthenium compounds C-2 and C-3 prepared, MCU-inhibitory properties of these compounds were evaluated and their activities compared to C-1, the oxo-bridged Ru360 analogue of the conventional art (S. R. Nathan et al., Inorg. Chem. 2017, 56, 3123-3126 and S. R. Nathan et al., J. Vis. Exp. 2017, 56527). The cytotoxicity of the complexes in HEK293 cells was first measured using the colorimetric thiazolyl blue tetrazolium bromide (MTT) assay, as well known in the art. […]
(In general: Tetrazolium dyes change colour on reduction, which living cells bring about.)

In the case of `N.N.N.N.N.N.N.N.[Cl-].[Cl-].[N-3].[Ru+4].[Ru+4]` [C-2, [Ru2(μ-N)(NH3)8Cl2]Cl3], in data set [1], the “mCa2+ uptake after H/R injury” value was “complete ablation of mCa^2+ uptake” and the “ΔΨm after H/R injury” value is reported as “no loss of ΔΨm”. The “cellular uptake relative to C-1 and C-3” value in the data set with HeLa cells is “twice as effectively as C-1 and C-3”. For the same compound, the “effect of MCU C97A mutation on MCU inhibition compared to MCU WT cells” value at MCU C97A mutant is “significantly reduced MCU inhibitory activity”. Also, the CC50 at 72 h in “MTT cytotoxicity assay” came to 195 ± 8 µM.

On to `N.N.N.N.N.N.N.N.O=C[O-].O=C[O-].[O-2].[Ru+3].[Ru+4]` [Ru360, reference compound], for which the “ΔΨm after H/R injury” value in data set [1] is on record as “did not prevent H/R-mediated ΔΨm dissipation”. Besides, the “effect of MCU C97A mutation on MCU inhibition compared to MCU WT cells” value on MCU C97A mutant was “almost no effect on the activity”.

Source of the values: patent publication US11154569B2, “Ruthenium μ-nitrido complexes and their use as calcium uptake inhibitors” (CORNELL UNIVERSITY, priority 2018, dated 2021).
